In PubChem BioAssay AID1996:
≈ marks a conversion by molar mass, not a printed value.

conditions: buffer; pH 7.4; 200.0 µM

SMILES	solubility kinetic [µg/mL]
Nc1nc(NCCc2ccccc2)nc(NCCO)c1[N+](=O)[O-]	46.3 (≈ 145 µM)
CN1CCN(c2ccc([N+](=O)[O-])c(SCCO)c2)CC1	> 44.6
Cc1csc2c(N3CCN(C(=O)NC(C)(C)C)CC3)ncnc12	> 50
COc1cccc(OCC(=O)NC2CCS(=O)(=O)C2)c1 (centres undefined)	> 44.9
Cc1ccccc1/C=C/C(=O)N1CCOCC1	> 34.7
O=C(NC1(C(F)(F)F)OCCO1)c1ccc(F)cc1	32.9 (≈ 118 µM)
CC(C)Cc1nc(N2CCNCC2)c(C#N)c2c1CCC2	41.1 (≈ 145 µM)
Cl.NCCC(=O)N1c2ccccc2Sc2ccccc21	29.9
CN1CCN(S(=O)(=O)c2ccc3c(c2)CC(=O)N3C)CC1	> 46.4
CN(C(=O)Nc1cnccc1C(F)(F)F)C1CCCCC1	41.1 (≈ 136 µM)
CC1=CC(C)(C)NC(=O)N1c1ccc(C)cc1	> 34.5
CCC(C)Nc1nc(N)c([N+](=O)[O-])c(Nc2ccccc2OC)n1 (centres undefined)	2.6 (≈ 7.82 µM)
O=C(O)c1cccc(S(=O)(=O)Nc2ccc3c(c2)CCC3)c1	> 47.6
Cc1cccc(C)c1NC(=O)CN(C)C(=O)CCC(=O)N1CCOCC1	> 54.2
COc1ccc(S(=O)(=O)N2CCc3ccccc32)cc1C(=O)NCCc1ccc(S(N)(=O)=O)cc1	3.7 (≈ 7.18 µM)
COc1ccc2nc(NC(=O)C34CC5CC(CC(NC(C)=O)(C5)C3)C4)sc2c1	41.2 (≈ 103 µM)
COc1ccccc1N1CN(CCc2ccccc2)CNC1=S	45.4 (≈ 139 µM)
S=C(NCc1cccnc1)Nc1cc(Cl)cc(Cl)c1	39.6 (≈ 127 µM)
CN1CCCN(C(=O)c2c(F)cccc2Cl)CC1	> 40.6
CSc1ccc(CNC(C)(C)CO)cc1.Cl	> 39.3

SMILES	solubility kinetic [µg/mL]
COc1ccc(NC(=O)Cn2cc(C#N)c3ccccc32)cc1	< 0.2
CCOC(=O)c1cc(C(=O)NC(C)c2ccccc2)c(C)[nH]c1=O (centres undefined)	2.7 (≈ 8.22 µM)
Nc1cccc(C(=O)O)c1	> 20.6
O=C(CN1C(=O)NC2(CCc3ccccc32)C1=O)Nc1ccccc1Cl (centres undefined)	> 55.5
Cc1ccc2nsnc2c1S(=O)(=O)Nc1ccccc1C(=O)O	> 52.4
O=C1CCC(=O)N1c1ccc(S(=O)(=O)N2CCCC2)cc1	45.4 (≈ 147 µM)
CC(C)Oc1cccc(C(=O)C2CCCN(C(=O)c3ccoc3)C2)c1 (centres undefined)	32.3 (≈ 94.6 µM)
CCOC(=O)C1CCCN(C(=O)COC(=O)c2cccs2)C1 (centres undefined)	47.6 (≈ 146 µM)
Cc1ccc(C(=O)N/C(=C\c2ccco2)C(=O)N2CCOCC2)cc1C	> 53.2
COc1ccc(CN(C)C(=S)Nc2ccc(Cl)cc2)cc1	13.5 (≈ 42.1 µM)
O=C(COC(=O)/C=C/c1cccc(F)c1)NC1CCCCCC1	5.6 (≈ 17.5 µM)
COc1ccc2nc(SCC(=O)NC3CC3)c(C#N)cc2c1	0.8 (≈ 2.55 µM)
OC1(CC#CCN2CCCCC2)c2ccccc2-c2ccccc21	42.2 (≈ 133 µM)
CN1C(=O)OC(C)(C)C1=O	< 0.3
O=C(NC12CC3CC(CC(C3)C1)C2)N(Cc1ccccc1)Cc1ccncc1	6.2 (≈ 16.5 µM)
CC12CCC(C(=O)Nc3ccncc3)(CC1O)C2(C)C (centres undefined)	> 41.2
CN(C)/C=C/C(=O)c1cccc(C(F)(F)F)c1	> 36.5
Cn1c(SCC(=O)NC2CCCCC2)nnc1-c1ccccc1F	> 52.3
CCc1ccc(S(=O)(=O)N2CCN(C(=O)c3cccnc3)CC2)cc1	> 53.9
COC(=O)c1sccc1NC(=O)Nc1cc(C)ccc1OC	11.1 (≈ 34.6 µM)

SMILES	solubility kinetic [µg/mL]
COc1cc(NC(=O)c2ccccc2)c(OC)cc1NC(=O)Cc1ccc(F)cc1	< 0.4
CNC(=S)Nc1cccc(C(=O)OC)c1	> 33.6
CCn1c(=S)[nH]c2cc(C(=O)O)ccc21	> 33.3
Cc1cccc(NC(=O)c2ccco2)c1C	31.8 (≈ 148 µM)
O=C(NC1CCN(C(=O)NCc2ccccc2)CC1)c1cccc(F)c1	3.4 (≈ 9.57 µM)
O=C(COC(=O)CC1CC2CCC1C2)Nc1ccccc1[N+](=O)[O-] (centres undefined)	2.9 (≈ 8.73 µM)
CCCn1c(=O)c2[nH]c(-c3ccc(S(=O)(=O)O)cc3)nc2n(CCC)c1=O	> 58.9
Cc1ccc(S(=O)(=O)N2CCN(c3ccccc3)CC2)cc1C	< 0.4
O=C(Nc1ccccc1)C1CCCN(C(=O)c2ccc(F)cc2)C1 (centres undefined)	> 49
CCOc1ncccc1C(=O)OCC(=O)NC(=O)NC(C)C	44.6 (≈ 144 µM)
CC(C)(C)N1C(=O)NC(=O)/C(=C\c2ccc3c(c2)CCN3CCCCl)C1=O	38 (≈ 97.5 µM)
O=C(O)c1ccccc1N1C(=O)C2C3CCC(C3)C2C1=O (centres undefined)	39.5 (≈ 138 µM)
CCN(CC)CC(=O)Nc1sc(C)cc1C(=O)c1ccccc1	2.5 (≈ 7.57 µM)
COc1cccc(C(O)c2nc3ccccc3n2C(C)C)c1OC (centres undefined)	> 49
COc1ccc(C(=O)CCNc2ccc(F)cc2)cc1	< 0.6
CN1C[C@H](C(=O)N[C@]2(C)O[C@@]3(O)[C@@H]4CCCN4C(=O)[C@H](Cc4ccccc4)N3C2=O)CC2c3cccc4[nH]cc(c34)C[C@H]21.CS(=O)(=O)O (some centres undefined)	62.9
Cc1ccc(CNS(=O)(=O)c2ccc(C)s2)cc1	> 42.2
Cc1ccc(CNC(=O)COC(=O)c2ccc(S(=O)(=O)N3CCOCC3)cc2)cc1	6.5 (≈ 15 µM)
COc1ccc(CCC(=O)NCCOc2ccc(C)cc2)cc1	24 (≈ 76.6 µM)
